# Source: patent US20210000838A1, “COMBINATION THERAPY” (MEI Pharma, Inc., priority 2018, published 2021)
# How the values were obtained:
# Type in all cases: cell-based
# [1] = tested on: DOHH-2 cells; assay: ATPLite growth inhibition assay, DOHH-2 cells; details: single agent, FIG. 10
# Description: (§1) Cells were thawed from a liquid nitrogen preserved state. […] Assay plates were accepted if they pass the following quality control standards: relative luciferase values were consistent throughout the entire experiment, Z-factor scores were greater than 0.6, untreated/vehicle controls behaved consistently on the plate. […]
# [2] = tested on: NU-DHL-1 cells; assay: ATPLite growth inhibition assay, NU-DHL-1 cells; details: single agent, FIG. 10
# Description: as §1
# [3] = tested on: Pfeiffer cells; assay: ATPLite growth inhibition assay, Pfeiffer cells; details: single agent, FIG. 10
# Description: as §1
# [4] = tested on: SU-DHL-10 cells; assay: ATPLite growth inhibition assay, SU-DHL-10 cells; details: single agent, FIG. 10
# Description: as §1
# [5] = tested on: OCI-Ly19 cells; assay: ATPLite growth inhibition assay, OCI-Ly19 cells; details: single agent, FIG. 10
# Description: as §1
# [6] = tested on: OCI-Ly3 cells; assay: ATPLite growth inhibition assay, OCI-Ly3 cells; details: single agent, FIG. 10
# Description: as §1
# [7] = tested on: panel of 8 DLBCL cell lines; assay: ATPLite growth inhibition assay across panel of 8 DLBCL cell lines; details: single agent, FIG. 9
smiles,measurement,setting,value
"CN1CCC(c2ccccc2CC(C)(C)Nc2nc(N3CCOCC3)nc(-n3c(C(F)F)nc4ccccc43)n2)CC1 [Compound I, 4-(2-(difluoromethyl)-1H-benzo[d]imidazol-1-yl)-N-(2-methyl-1-(2-(1-methylpiperidin-4-yl)phenyl)propan-2-yl)-6-morpholino-1,3,5-triazin-2-amine]",growth inhibition effect type,[1],cytotoxic effects
same,growth inhibition effect type,[2],sub-cytostatic effects
same,growth inhibition effect type,[3],sub-cytostatic effects
same,growth inhibition effect type,[4],sub-cytostatic effects
same,growth inhibition effect type,[5],cytotoxic effects
same,growth inhibition effect type,[6],cytotoxic effects
same,growth inhibition levels,[7]; all cell lines,> 50%
same,GI50,"[7]; median across cell line panel, 72 hours",1730 nM
